For one data set, the target named is human Kv7.2 (Homo sapiens (Human), UniProt O43526). The experiment in a line: SyncroPatch 384 electrophysiology, CHO cells stably expressing human Kv7.2. In kind it is cell-based. Here is the method: (§1) The potency of Kv7 potentiators was determined using the SyncroPatch 384 (Nanion) high throughput electrophysiology platform.
(§2) CHO cells stably expressing either human Kv7.2, Kv7.4 or Kv7.5/7.3 under a constitutive CMV promoter were used for these studies. Cells were maintained in F12 Hams+1 mM L-glutamine (Hyclone) supplemented with 10% FBS (Sigma), 0.3×NEAA (Non-essential Gamino-acids) and 400 ug/ml G418 at 37° C. in 5% CO2. Cells were cultured in T-225 flasks (Nunc) for 2-3 days to reach 85-95% confluence prior to electrophysiological recording.
(§3) Earle's balanced salt solution (in mM): 135 NaCl, 5.4 KCl, 5 Glucose, 2 CaCl2, 1 MgCl2, 5 HEPES, pH 7.4. Seal enhancer solution (in mM): 90 NaCl, 3 KCl, 35 CaCl2, 10 MgCl2, 10 HEPES, pH 7.4. Extracellular recording solution (in mM): 71 NaCl, 70 NMDG, 13 KCl, 5 Glucose, 2 CaCl2, 1 MgCl2, 10 HEPES, pH 7.4. Intracellular recording solution (in mM): 130 KF, 20 KCl, 4 EGTA, 10 HEPES, 2 EDTA, 0.01 Escin, pH 7.2.
(§4) Cells were harvested for electrophysiological recording upon reaching appropriate confluence. Cells were first washed in DPBS (Hyclone, Cat #SH30028.03) and then 2 ml of Accutase (MP Biomedicals #1000449) was added at 28° C. until ˜90% of cells were suspended. F12 HAM's media+1 mM L-glutamine (Hyclone, SH30026.02) was then added to the flask to dilute the accutase. Cells were then triturated until a single cell suspension was achieved, a cell count was performed, and cells were centrifuged for 2 min. at 1,000 rpm. Media was then aspirated, and cells were resuspended in Earle's balanced salt solution to a concentration of 0.75×10^6 cells/ml and allowed to recover for 25 min at 10° C.
(§5) At the beginning of each assay, 20 μl of cell suspension was dispensed into each well of a multi-hole 384-well SyncroPatch chip by the onboard pipettor. Cell sealing was initiated, and seal enhancer solution was added to facilitate seal formation. Upon completion of sealing, cells were washed 3 times with extracellular recording solution and the assay voltage protocol was started. Human Kv7.2, Kv7.4 or Kv7.5/7.3 channels were evaluated using a voltage protocol in which cells were voltage-clamped at a holding potential of −60 mV. Potassium currents were continuously activated with a series of three voltage steps to −30 mV for 3 seconds, 40 mV for 1 second and −90 mV for 4 seconds with 12 seconds between successive voltage sweeps. Potassium currents were measured from the −90 mV repolarizing step. Baseline current was assessed for 3.5 minutes prior to the addition of 5.6 μM zinc pyrithione (1 μM for Kv7.4). Kv7.2, Kv7.4 or Kv7.5/7.3 current in the presence of zinc pyrithione was acquired over five minutes to allow channels to reach steady state activity prior to addition of test agents. Channel activity was monitored for three minutes preceding the addition of 30 μM ML-213 (3 minutes) to achieve maximum activation.
(§6) Data were collected on the SyncroPatch platform using PatchControl software (Nanion) and processed and analyzed using DataControl Software (Nanion). Percent activation was calculated from potassium current as follows: The average current for the 5 sweeps in the presence of zinc pyrithione immediately preceding test agent addition was taken as the ‘control’ data. Likewise, the average potassium current in the presence of test agents 5 sweeps immediately preceding addition of 30 μM ML-213 was determined for ‘drug’ data. The average potassium current 5 sweeps immediately prior to addition of 150 mM TEA+10 μM XE-991 was determined for ‘max activation’ data while average currents from 5 sweeps immediately following addition of TEA was determined for ‘max inhibition’ data. Percent activation for each of the 384-wells of a sealchip was calculated as ((‘drug’−‘max inhibition’)/(‘max activation’−‘max inhibition’))*100 with Pipeline Pilot (Accelrys). […]
(In general: Patch clamp records ionic current or voltage across a cell membrane.)

The target of the next data set is human Kv7.5/7.3 (Homo sapiens (Human), UniProt O43525+Q9NR82). Put plainly: SyncroPatch 384 electrophysiology, CHO cells stably expressing human Kv7.5/7.3. The settings on record: Table A; for Kv7.5/7.3/Kv7.2 selectivity ratio: Kv7.5/7.3 EC50 over Kv7.2 EC50. In kind it is cell-based. The protocol: as §1, §2, §3, §4, §5, §6
For another data set, the target named is human Kv7.4 (Homo sapiens (Human), UniProt P56696). The experiment in a line: SyncroPatch 384 electrophysiology, CHO cells stably expressing human Kv7.4. The settings on record: Table C; for Kv7.4/Kv7.2 selectivity ratio: Kv7.4 EC50 over Kv7.2 EC50. The format is cell-based. Here is the method:
as §1, §2, §3
Cells were harvested for electrophysiological recording upon reaching appropriate confluence. Cells were first washed in DPBS (Hyclone, Cat #SH30028.03) and then 2 ml of Accutase (MP Biomedicals #1000449) was added at 28° C. until ˜90% of cells were suspended. F12 HAM's media+1 mM L-glutamine (Hyclone, SH30026.02) was then added to the flask to dilute the accutase. […]
At the beginning of each assay, 20 μl of cell suspension was dispensed into each well of a multi-hole 384-well SyncroPatch chip by the onboard pipettor. […] Human Kv7.2, Kv7.4 or Kv7.5/7.3 channels were evaluated using a voltage protocol in which cells were voltage-clamped at a holding potential of −60 mV. […] Potassium currents were measured from the −90 mV repolarizing step. Baseline current was assessed for 3.5 minutes prior to the addition of 5.6 μM zinc pyrithione (1 μM for Kv7.4). […] Channel activity was monitored for three minutes preceding the addition of 30 μM ML-213 (3 minutes) to achieve maximum activation.
as §6, with “data.” for “data. Percent activation for each of the 384-wells of a sealchip was calculated as ((‘drug’−‘max inhibition’)/(‘max activation’−‘max inhibition’))*100 with Pipeline Pilot (Accelrys).”

Data set [1] is described as follows: Human liver microsomal clearance. The format is in vitro ADME. The note with it: both sexes, liver microsomes, Table B, 0.5 μM compound, 0.25 mg/mL microsomes, NADPH, 37° C., read-out: Human liver microsomal intrinsic clearance CLint. The protocol: Pooled mixed gender human liver microsomes were purchased from BioIVT at a concentration of 20 mg protein/mL and stored at −80° C. Incubations were conducted in V-bottomed 350 μL polypropylene 96-well plates. Compounds were diluted in phosphate buffer (final concentrations 0.5 μM compound, 0.5% DMSO) and mixed with diluted liver microsomes (fc 0.25 mg/mL). This mixture was aliquoted onto the assay plate (six wells per compound) and pre-warmed at 37° C. for ten minutes. Addition of NADPH (fc 0.5 mM, final incubation volume 100 μL) to each well started the time course. Reactions were stopped at 0.5, 3, 5, 10, 20 & 30 minutes by addition of 150 μL acetonitrile containing internal standard (IS; 0.125 μg/mL daidzein) and stopped samples were removed to a clean polypropylene plate. At the end of the assay the plate was refrigerated for an hour and then centrifuged at 3000 rpm for 10 minutes at 4° C. A sample of the supernatant was removed to a fresh plate and diluted 10-fold with 50:50 acetonitrile:water, then heat sealed. Analysis was by liquid chromatography coupled with tandem mass spectrometry (LC-MS/MS) for analyte and IS levels. Ratios of the analyte and IS peak areas were generated for results calculation (IS ratio). Dextromethorphan and verapamil were included in each experiment as controls for high clearance compounds. IS ratio data were converted into natural log values which were plotted against time and a linear regression fit applied. The slope of the line was returned and converted into the elimination constant (kel) by multiplying by −1. The elimination constant was used to calculate the in vitro CLint: in vitro CLint (μL/min/mg protein) is kel* (1000/protein conc in mg/mL).
For orientation: Microsomes from liver hold many membrane-bound enzymes, among them those of drug oxidation.

[2] abbreviates: Table 1, CHO cells, potassium current at -90 mV step, in presence of zinc pyrithione.

The source of these data is patent publication US20240316020A1, “Novel Pyridine Compounds” (ICAGEN, LLC, priority 2021, published 2024).

Sequence of human Kv7.4 (P56696 whole entry): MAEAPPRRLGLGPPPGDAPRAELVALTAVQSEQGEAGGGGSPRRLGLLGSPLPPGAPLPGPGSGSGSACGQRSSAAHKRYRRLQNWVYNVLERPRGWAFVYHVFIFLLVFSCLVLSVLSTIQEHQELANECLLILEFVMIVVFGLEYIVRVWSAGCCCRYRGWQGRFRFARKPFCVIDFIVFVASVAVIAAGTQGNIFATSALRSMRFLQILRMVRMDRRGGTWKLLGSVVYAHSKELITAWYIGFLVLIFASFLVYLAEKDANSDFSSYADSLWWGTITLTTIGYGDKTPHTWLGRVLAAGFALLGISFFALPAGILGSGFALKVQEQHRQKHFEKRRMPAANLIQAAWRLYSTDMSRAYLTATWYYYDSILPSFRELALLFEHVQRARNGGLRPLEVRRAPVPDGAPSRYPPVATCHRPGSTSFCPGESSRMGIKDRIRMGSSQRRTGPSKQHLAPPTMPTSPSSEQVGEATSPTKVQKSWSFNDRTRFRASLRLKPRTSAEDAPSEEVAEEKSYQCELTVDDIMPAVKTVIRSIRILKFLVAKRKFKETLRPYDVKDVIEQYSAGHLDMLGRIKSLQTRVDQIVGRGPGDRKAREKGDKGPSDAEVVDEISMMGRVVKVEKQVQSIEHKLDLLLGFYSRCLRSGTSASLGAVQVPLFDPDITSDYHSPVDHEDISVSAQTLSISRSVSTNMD
Sequence of human Kv7.5/7.3 (Q9NR82 whole entry): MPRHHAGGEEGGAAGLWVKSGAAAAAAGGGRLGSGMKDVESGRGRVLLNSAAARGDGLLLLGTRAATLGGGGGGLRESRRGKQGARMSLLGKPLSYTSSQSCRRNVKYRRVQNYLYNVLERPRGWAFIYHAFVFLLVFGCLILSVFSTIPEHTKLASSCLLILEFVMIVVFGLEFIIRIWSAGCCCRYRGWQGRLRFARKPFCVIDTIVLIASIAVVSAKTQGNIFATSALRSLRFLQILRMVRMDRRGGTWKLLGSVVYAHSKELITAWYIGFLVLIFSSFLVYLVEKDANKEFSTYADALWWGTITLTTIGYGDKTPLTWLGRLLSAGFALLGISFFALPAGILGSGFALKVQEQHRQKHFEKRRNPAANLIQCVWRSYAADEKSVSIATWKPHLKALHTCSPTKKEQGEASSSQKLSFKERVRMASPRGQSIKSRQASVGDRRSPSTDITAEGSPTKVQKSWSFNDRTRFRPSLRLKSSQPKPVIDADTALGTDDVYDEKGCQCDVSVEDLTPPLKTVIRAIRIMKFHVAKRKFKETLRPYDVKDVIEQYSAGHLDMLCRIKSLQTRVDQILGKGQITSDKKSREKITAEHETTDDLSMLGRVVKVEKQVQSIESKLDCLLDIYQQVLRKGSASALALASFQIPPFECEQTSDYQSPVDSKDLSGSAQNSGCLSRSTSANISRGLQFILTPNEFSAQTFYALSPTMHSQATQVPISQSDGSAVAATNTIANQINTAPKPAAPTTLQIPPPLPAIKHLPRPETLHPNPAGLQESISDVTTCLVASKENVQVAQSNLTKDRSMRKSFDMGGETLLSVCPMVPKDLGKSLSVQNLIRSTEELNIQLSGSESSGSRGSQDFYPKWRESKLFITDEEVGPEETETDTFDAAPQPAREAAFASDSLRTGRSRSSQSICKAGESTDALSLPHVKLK
Sequence of human Kv7.5/7.3 (O43525 whole entry): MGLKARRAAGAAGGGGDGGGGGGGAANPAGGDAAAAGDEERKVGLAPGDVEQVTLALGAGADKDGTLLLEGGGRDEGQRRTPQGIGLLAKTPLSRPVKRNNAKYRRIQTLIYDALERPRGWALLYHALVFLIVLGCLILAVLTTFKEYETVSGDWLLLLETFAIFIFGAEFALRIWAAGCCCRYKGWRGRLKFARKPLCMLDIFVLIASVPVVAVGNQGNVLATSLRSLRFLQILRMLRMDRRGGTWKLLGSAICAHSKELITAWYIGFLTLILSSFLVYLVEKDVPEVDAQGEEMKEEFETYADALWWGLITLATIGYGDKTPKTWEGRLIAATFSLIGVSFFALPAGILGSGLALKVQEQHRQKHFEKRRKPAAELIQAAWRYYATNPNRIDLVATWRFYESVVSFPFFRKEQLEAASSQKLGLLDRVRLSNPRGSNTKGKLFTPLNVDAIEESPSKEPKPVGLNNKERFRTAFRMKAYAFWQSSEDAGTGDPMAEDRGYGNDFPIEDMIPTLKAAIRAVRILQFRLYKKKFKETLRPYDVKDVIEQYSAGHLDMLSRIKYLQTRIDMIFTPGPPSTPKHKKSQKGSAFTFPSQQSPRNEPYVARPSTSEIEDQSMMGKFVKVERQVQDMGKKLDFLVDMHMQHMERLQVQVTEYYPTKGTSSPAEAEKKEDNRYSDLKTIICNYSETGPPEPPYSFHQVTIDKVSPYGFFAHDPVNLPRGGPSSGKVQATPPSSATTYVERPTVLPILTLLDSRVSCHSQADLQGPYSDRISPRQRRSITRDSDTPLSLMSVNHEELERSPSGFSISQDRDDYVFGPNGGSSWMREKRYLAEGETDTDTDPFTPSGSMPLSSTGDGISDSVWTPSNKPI
Sequence of human Kv7.2 (O43526 whole entry): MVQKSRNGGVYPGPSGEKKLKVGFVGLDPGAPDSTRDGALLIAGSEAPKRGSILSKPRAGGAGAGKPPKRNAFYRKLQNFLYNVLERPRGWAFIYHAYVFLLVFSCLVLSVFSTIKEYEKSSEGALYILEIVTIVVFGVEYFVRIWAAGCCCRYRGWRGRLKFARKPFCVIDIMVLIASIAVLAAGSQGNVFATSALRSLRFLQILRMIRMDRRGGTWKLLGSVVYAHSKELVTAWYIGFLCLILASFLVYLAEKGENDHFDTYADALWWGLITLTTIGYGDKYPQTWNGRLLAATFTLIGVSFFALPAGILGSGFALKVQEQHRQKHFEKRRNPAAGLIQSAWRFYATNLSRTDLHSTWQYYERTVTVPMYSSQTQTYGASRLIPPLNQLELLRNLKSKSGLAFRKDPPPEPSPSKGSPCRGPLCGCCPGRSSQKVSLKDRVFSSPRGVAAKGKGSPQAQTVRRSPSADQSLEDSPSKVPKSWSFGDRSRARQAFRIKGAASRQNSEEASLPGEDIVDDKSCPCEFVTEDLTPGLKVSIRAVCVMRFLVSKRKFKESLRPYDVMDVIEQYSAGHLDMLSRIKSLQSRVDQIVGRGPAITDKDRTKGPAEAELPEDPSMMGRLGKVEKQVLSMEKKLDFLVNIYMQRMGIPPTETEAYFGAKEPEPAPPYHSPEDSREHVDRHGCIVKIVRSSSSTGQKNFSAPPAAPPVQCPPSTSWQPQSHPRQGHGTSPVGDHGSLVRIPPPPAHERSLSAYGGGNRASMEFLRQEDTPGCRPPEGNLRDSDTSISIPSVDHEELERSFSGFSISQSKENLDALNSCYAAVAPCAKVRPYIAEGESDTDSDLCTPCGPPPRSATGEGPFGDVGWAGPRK

For the molecule `O=C(NCc1ccnc(OC(F)F)c1)N[C@@H]1CCOC2(CCC2)C1` [Example 27, 1-[[2-(difluoromethoxy)pyridin-4-yl]methyl]-3-[(8R)-5-oxaspiro[3.5]nonan-8-yl]urea], the concentration giving a half-maximal response (EC50) (usually the concentration giving half of the maximal effect) on human Kv7.2 (setting [2]) is 0.26 µM; at human Kv7.2 (Table A), 0.26 µM; on human Kv7.2 (Table C) it was 0.26 µM; on human Kv7.5/7.3, > 30 µM; on human Kv7.4 it was > 30 µM. Moreover, the Kv7.5/7.3/Kv7.2 selectivity ratio at human Kv7.5/7.3 is >115. Further, the Kv7.4/Kv7.2 selectivity ratio on human Kv7.4 is given as >115. Further, in data set [1], the microsomal CLint – broadly, the rate of metabolic loss divided by the concentration – at 0.5 μM is 20.5 µL/min/mg.
Take `O=C(NCc1ccnc(OC(F)F)c1)NC1CCOC2(CCCC2(F)F)C1` (centres unmarked) [Example 21, 1-[[2-(difluoromethoxy)pyridin-4-yl]methyl]-3-(4,4-difluoro-6-oxaspiro[4.5]decan-9-yl)urea]: the EC50 on human Kv7.2 (setting [2]) is 0.21 µM; at human Kv7.2 (Table A), 0.21 µM; on human Kv7.2 (Table C), 0.21 µM; on human Kv7.5/7.3, > 30 µM; on human Kv7.4, > 30 µM. Also, at human Kv7.5/7.3, the Kv7.5/7.3/Kv7.2 selectivity ratio was >146. Moreover, on human Kv7.4, the Kv7.4/Kv7.2 selectivity ratio was >143. Besides, the intrinsic clearance (microsomal CLint) at 0.5 μM in data set [1] was found to be 20.4 µL/min/mg.
Take `O=C(NCc1ccnc(OC(F)F)c1)NC1CCOC2(CCC2)C1` (centres unmarked) [Example 17, 1-[[2-(difluoromethoxy)pyridin-4-yl]methyl]-3-(5-oxaspiro[3.5]nonan-8-yl)urea]: the EC50 at human Kv7.2 (setting [2]) came out at 0.34 µM. On human Kv7.5/7.3, the EC50 is > 30 µM and the Kv7.5/7.3/Kv7.2 selectivity ratio is reported as >87. Moreover, the microsomal CLint at 0.5 μM in data set [1] came to 3.8 µL/min/mg.
For the molecule `CC(F)(F)c1cc(CNC(=O)NC2CC3(CCC3)C2)ccn1` [Example 9, 1-[[2-(1,1-difluoroethyl)pyridin-4-yl]methyl]-3-spiro[3.3]heptan-2-ylurea], the EC50 on human Kv7.2 (setting [2]) turned out to be 0.19 µM. The microsomal CLint at 0.5 μM in data set [1] worked out at 17.6 µL/min/mg.
For `O=C(NCc1ccnc(OC(F)F)c1)NC1CCOC2(CCCC2)C1` (centres unmarked) [Example 14, 1-[[2-(difluoromethoxy)pyridin-4-yl]methyl]-3-(6-oxaspiro[4.5]decan-9-yl)urea], the half-maximal effective concentration (EC50) at human Kv7.2 (setting [2]) was 0.26 µM; on human Kv7.2 (Table A) it was 0.26 µM; at human Kv7.5/7.3, > 30 µM. Further, the Kv7.5/7.3/Kv7.2 selectivity ratio on human Kv7.5/7.3 is >116. In data set [1], the microsomal CLint at 0.5 μM was found to be 20 µL/min/mg.
On to `O=C(NCc1ccnc(OCC(F)(F)F)c1)NC1CC2(CC2)C1` [Example 12, 1-spiro[2.3]hexan-5-yl-3-[[2-(2,2,2-trifluoroethoxy)pyridin-4-yl]methyl]urea], for which, on human Kv7.2 (setting [2]), the half-maximal effective concentration (EC50) stood at 0.17 µM. Further, the microsomal CLint at 0.5 μM in data set [1] is 15.2 µL/min/mg.
For the molecule `O=C(NCc1ccnc(OC(F)F)c1)N[C@H]1CC2(CCC2)[C@H]1O` (racemic) [Example 26, 1-[[2-(difluoromethoxy)pyridin-4-yl]methyl]-3-[rac-(2R,3S)-3-hydroxyspiro[3.3]heptant-2-yl]urea], the EC50 on human Kv7.2 (setting [2]) came out at 0.44 µM. Further, the microsomal CLint at 0.5 μM in data set [1] was 11.5 µL/min/mg.
As to `O=C(NCc1ccnc(OC(F)F)c1)N[C@H]1CC2(CCC2)[C@@H]1O` (racemic) [Example 25, 1-[[2-(difluoromethoxy)pyridin-4-yl]methyl]-3-[rac-(2R,3R)-3-hydroxyspiro[3.3]heptan-2-yl]urea], the EC50 on human Kv7.2 (setting [2]) worked out at 0.74 µM. At human Kv7.5/7.3, the EC50 is > 30 µM and the Kv7.5/7.3/Kv7.2 selectivity ratio was >41. In addition, the microsomal CLint at 0.5 μM in data set [1] stood at 14.2 µL/min/mg.
